Experimental findings from patent EP2522332A1, “Use of resveratrol and magnesium-ascorbyl-phosphate” (DSM IP Assets B.V., priority 2011, dated 2012) are described below.

In this assay the test system is SILV. The experiment in a line: Assessment of gene modulation in normal human epidermal melanocytes (NHEM), RT-qPCR / PCR array. The format is cell-based. The following applies: for activation at 1000 µg/mL: Homo sapiens, Melanocyte. How it is done: Normal human epidermal melanocytes were cultivated for 24 hours. […] Cells were cultivated for additional 72 hours. All experimental conditions were performed in triplicate.
At the end of the cultivation, the cells were harvested and washed with phosphate buffered saline (PBS) solution and immediately frozen at -80°C. The expression of selected markers was analyzed using RT-qPCR method on mRNA extracted from cells layer for each treatment condition. The differential expression analysis was performed by PCR arrays of the screening format "mQPA H-Melanocyte-64", which focuses on 64 genes selected for their importance in pigmentation and melanocyte biology.
Total RNA was extracted from each sample using TRI-Reagent®. The amount and quality of the RNA was evaluated using a lab-on-a-chip Bioanalyzer (Agilent technologies). Potential contaminants traces of DNA were removed […] The incorporation of fluorescence in amplified DNA was measured continuously during the PCR cycles. […] The value selected for RE calculations is the "output point" (Ct) of the fluorescence curve. For a given marker, the highest is the cycle number; the lowest, is the mRNA quantity. The RE value is expressed in arbitrary units (AU) according to the equation: (((1)/(2)))^NC x 10^6 [formula]
Where NC is the number of cycles.

Where two headings read alike, the source gives them in different places.

For the compound `O=C1O[C@H]([C@@H](O)CO)C(O)=C1OP(=O)(O)O` [magnesium-ascorbyl-phosphate, magnesium-L-ascorbyl-2-phosphate], the activation at 1000 µg/mL was 25% (NHEM cells treated 72 hours, resveratrol 5 µg/ml, magnesium-ascorbyl-phosphate 1 mg/ml, combination 5 µg/ml + 1 mg/ml, versus control, read-out: SILV (expression level of the gene SILV)) and 25% (NHEM cells, magnesium ascorbyl phosphate 1 mg/ml, 72 hours, read-out: induction of the SILV gene).

With `Oc1ccc(C=Cc2cc(O)cc(O)c2)cc1` [Resveratrol, 3,4',5 trihydroxystilbene], the “modulation of the gene SILV” value (NHEM cells, resveratrol alone 5 micrograms/ml, 72 hours) is recorded as “did not modulate”.
